The record followed here is patent US20220306695A1, “COMPSTATIN ANALOGUES AND THEIR MEDICAL USES” (priority 2019, published 2022).

Data set [1] in a line: in vivo. Also on record: species or system Cynomolgus monkeys (Macaca fascicularis). The settings on record: male, cynomolgus monkey, sc, 1840 nmol/kg, t½. As to the method:
Healthy male Cynomolgus monkeys (Macaca fascicularis) received single subcutaneous administrations of each test substance. Compounds were formulated in 20 mM phosphate adjusted with NaOH to pH 7.5 and mannitol for isotonicity and dosed at 1840 nmol/kg. Blood was collected from a femoral vein from each animal at the following times: Pre-dose, 1, 2, 4, 8, 24, 48, 72, 96 and 120 h (10 sampling times). Blood was collected into serum separation tubes and allowed to clot at room temperature. The tubes were centrifuged and resulting serum was aliquoted and snap-frozen over dry-ice and stored at nominally −80° C. until analysis. All NHP studies were performed in accordance with animal welfare laws and regulations, including approval of the study by a local ethical review process.
In order to assess pharmacokinetic half-life (t %/), serum samples isolated from non-human primates at specific time points after dosing were analysed for total drug compound after sample preparation by solid phase extraction (SPE) and liquid chromatography mass spectrometry (LC-MS/MS) using analogue internal standard. Single measurement of serum concentrations were used for calculation of the pharmacokinetic parameters using the non-compartmental approach in Phoenix WinNonlin 6.3. Plasma terminal elimination half-life (ty) was determined as In(2)/λz where λz is the magnitude of the slope of the log linear regression of the log concentration versus time profile during the terminal phase.

Data set [2] can be described thus: Solubility test at 10 mg/mL (visual inspection and light scattering). It counts as physicochemical. Conditions: for Solubility, Condition 1 Acetate pH 4: 10 mg/mL compound in 100 mM acetate pH 4; for Solubility, Condition 2 Acetate pH 5: 10 mg/mL compound in 100 mM acetate pH 5; for Solubility, Condition 3 Phosphate pH 6: 10 mg/mL compound in 100 mM phosphate pH 6; for Solubility, Condition 4 Phosphate pH 7: 10 mg/mL compound in 100 mM phosphate pH 7; for Solubility, Condition 5 Phosphate pH 7.5: 10 mg/mL compound in 100 mM phosphate pH 7.5.

For data set [3], the system named is classical complement pathway. The data set is described as follows: In vitro haemolysis assay (inhibition of classical complement pathway). Type of data set: cell-based, human. Conditions: Table 3; human serum, sensitized sheep red blood cells; read-out: IC50[nM], in vitro analysis of inhibition of hemolysis. Put shortly:
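Serially diluted compound (9 points) was preincubated 15 min at room temperature with diluted human serum, titrated per batch to give 70-90% maximal haemolysis, in Tris/casein buffer pH 7.4 with Mg2+/Ca2+. Antibody-sensitized sheep erythrocytes were then added for 30 min at 37° C, and the reaction was stopped with EDTA. Haemolysis was read at A405, with IC50 from 4PL fit.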

Starred links: 1 amine or outer side, 2 acyl side, 3 side chain; linkers in the order of their positions; H or OH if unused. Positions of bridges follow the written chain, without caps; N, C: chain ends. Non-standard residues stand in square brackets, D forms with d. Residues, ends and D or L forms follow the SMILES beside them. Groups on a side chain read outwards from the residue. *: point of attachment. Trp(1-Me) = Cn1cc(C[C@H](N)C(=O)O)c2ccccc21; Abu(4-yl) = O=C([C@H](CC[*:3])N[*:1])[*:2]; C18 diacid = O=C(O)CCCCCCCCCCCCCCCCC(=O)*; C16 diacid = O=C(O)CCCCCCCCCCCCCCC(=O)*; γGlu = O=C(O)[C@H](CCC(=O)[*:2])N[*:1]; AEEA = NCCOCCOCC(=O)O; Sar = CNCC(=O)O

Regarding `CC[C@H](C)[C@@H]1NC(=O)[C@@H](NC(=O)[C@H](Cc2ccc(O)cc2)NC(=O)[C@H](C)NC(=O)[C@H](CO)NC(=O)CNC(=O)[C@H](CCC(=O)O)NC(C)=O)CSSC[C@@H](C(=O)N(C)CC(=O)N[C@@H](CCC(=O)O)C(=O)NCC(=O)N[C@@H](CCCCNC(=O)COCCOCCNC(=O)COCCOCCNC(=O)CC[C@H](NC(=O)CCCCCCCCCCCCCCC(=O)O)C(=O)O)C(N)=O)NC(=O)[C@H](CCCNC(=N)N)NC(=O)[C@H](Cc2c[nH]cn2)NC(=O)[C@H](CCC(=O)O)NC(=O)CNC(=O)[C@H](Cc2c[nH]c3ccccc23)NC(=O)[C@H](CC(=O)O)NC(=O)[C@H](CCC(N)=O)NC(=O)[C@H](Cc2cn(C)c3ccccc23)NC1=O` [Compound 104] (Ac-EGSAYCI[Trp(1-Me)]QDWGEHRC[Sar]EGK([AEEA-AEEA-γGlu-C16 diacid])-NH2; disulfide 6-16), the half-life in data set [1] was 96.3 h. Also, in data set [2], the “Solubility, Condition 1 Acetate pH 4” value is recorded as “− (denotes lack of solubility at the given condition, as UV absorbance at 340 nm exceeds 0.1 AU and/or it is visibly turbid or contains particles.)”; the “Solubility, Condition 2 Acetate pH 5” value is “+ (denotes solubility at the given condition, as determined by UV absorbance being less than 0.1 AU at 340 nm and the sample being clear when manually inspected.)”; the “Solubility, Condition 3 Phosphate pH 6” value is “+ (denotes solubility at the given condition, as determined by UV absorbance being less than 0.1 AU at 340 nm and the sample being clear when manually inspected.)”; the “Solubility, Condition 4 Phosphate pH 7” value is “+ (denotes solubility at the given condition, as determined by UV absorbance being less than 0.1 AU at 340 nm and the sample being clear when manually inspected.)”. The “Solubility, Condition 5 Phosphate pH 7.5” value in data set [2] is “+ (denotes solubility at the given condition, as determined by UV absorbance being less than 0.1 AU at 340 nm and the sample being clear when manually inspected.)”. Also, in data set [3], the half-maximal inhibitory concentration (IC50) is less than 100 nM.
Molecule `CC[C@H](C)[C@@H]1NC(=O)[C@@H](NC(=O)[C@H](Cc2ccc(O)cc2)NC(=O)[C@H](CCC(=O)O)NC(=O)[C@H](CO)NC(=O)CNC(=O)[C@H](CCC(=O)O)NC(=O)CCCCCCCCCCCCCCC(=O)O)CSSC[C@@H](C(=O)N(C)CC(=O)N[C@@H](CCC(=O)O)C(N)=O)NC(=O)[C@H](CCCNC(=N)N)NC(=O)[C@H](Cc2c[nH]cn2)NC(=O)[C@H](CCC(=O)O)NC(=O)CNC(=O)[C@H](Cc2c[nH]c3ccccc23)NC(=O)[C@H](CC(=O)O)NC(=O)[C@H](CCC(N)=O)NC(=O)[C@H](Cc2cn(C)c3ccccc23)NC1=O` [Compound 107] ({C16 diacid}-EGSEYCI[Trp(1-Me)]QDWGEHRC[Sar]E-NH2; disulfide 6-16) gave a half-life in data set [1] of 20.1 h. Further, in data set [2], the “Solubility, Condition 1 Acetate pH 4” value is listed as “− (denotes lack of solubility at the given condition, as UV absorbance at 340 nm exceeds 0.1 AU and/or it is visibly turbid or contains particles.)”; the “Solubility, Condition 2 Acetate pH 5” value was “− (denotes lack of solubility at the given condition, as UV absorbance at 340 nm exceeds 0.1 AU and/or it is visibly turbid or contains particles.)”; the “Solubility, Condition 3 Phosphate pH 6” value was “+ (denotes solubility at the given condition, as determined by UV absorbance being less than 0.1 AU at 340 nm and the sample being clear when manually inspected.)”; the “Solubility, Condition 4 Phosphate pH 7” value is “+ (denotes solubility at the given condition, as determined by UV absorbance being less than 0.1 AU at 340 nm and the sample being clear when manually inspected.)”. For the same molecule, the “Solubility, Condition 5 Phosphate pH 7.5” value in data set [2] was “+ (denotes solubility at the given condition, as determined by UV absorbance being less than 0.1 AU at 340 nm and the sample being clear when manually inspected.)”. Further, the IC50 in data set [3] is less than 100 nM.
In turn, `CC[C@H](C)[C@@H]1NC(=O)[C@@H](NC(=O)[C@H](Cc2ccccc2)NC(=O)[C@H](CCC(=O)O)NC(=O)[C@H](CO)NC(C)=O)CSCC[C@@H](C(=O)N(C)CC(=O)N[C@@H](CCC(=O)O)C(=O)NCC(=O)N[C@@H](CCC(=O)O)C(=O)NCCOCCOCC(=O)NCCOCCOCC(=O)N[C@@H](CCCCNC(=O)CC[C@H](NC(=O)CNC(=O)CC[C@H](NC(=O)CCCCCCCCCCCCCCCCC(=O)O)C(=O)O)C(=O)O)C(N)=O)NC(=O)[C@H](CCCNC(=N)N)NC(=O)[C@H](Cc2c[nH]cn2)NC(=O)[C@H](CCC(=O)O)NC(=O)CNC(=O)[C@H](Cc2c[nH]c3ccccc23)NC(=O)[C@H](CC(=O)O)NC(=O)[C@H](CCC(N)=O)NC(=O)[C@H](Cc2cn(C)c3ccccc23)NC1=O` [Compound 146, Ac-SEFA(1)I[1-Me-Trp]QDWGEHRhC(1)[Sar]EGE[Peg3][Peg3]-K([17-carboxy-heptadecanoyl][γGlu]G[γGlu])-NH2] (Ac-SEFCI[Trp(1-Me)]QDWGEHR[Abu(4-yl)][Sar]EGE[AEEA][AEEA]K([γGlu-Gly-γGlu-C18 diacid])-NH2; thioether 4-14) showed a half-life in data set [1] of 117 h. In data set [3], the IC50 was less than 100 nM.
The like results for `CC[C@H](C)[C@@H]1NC(=O)[C@@H](NC(=O)[C@H](Cc2ccccc2)NC(=O)[C@H](CCC(=O)O)NC(=O)[C@H](CO)NC(C)=O)CSSC[C@@H](C(=O)N(C)CC(=O)N[C@@H](CCC(=O)O)C(=O)NCC(=O)N[C@@H](CCC(=O)O)C(=O)N[C@@H](CO)C(=O)N[C@@H](CCC(=O)O)C(=O)N[C@@H](CO)C(=O)N[C@@H](CCCCNC(=O)CC[C@H](NC(=O)CNC(=O)CC[C@H](NC(=O)CCCCCCCCCCCCCCCCC(=O)O)C(=O)O)C(=O)O)C(N)=O)NC(=O)[C@H](CCCNC(=N)N)NC(=O)[C@H](Cc2c[nH]cn2)NC(=O)[C@H](CCC(=O)O)NC(=O)CNC(=O)[C@H](Cc2c[nH]c3ccccc23)NC(=O)[C@H](CC(=O)O)NC(=O)[C@H](CCC(N)=O)NC(=O)[C@H](Cc2cn(C)c3ccccc23)NC1=O` [Compound 139] (Ac-SEFCI[Trp(1-Me)]QDWGEHRC[Sar]EGESESK([γGlu-Gly-γGlu-C18 diacid])-NH2; disulfide 4-14) were, in that order, 82 h and less than 100 nM.

One may read the half-life as how long it takes for the measured level to halve. Read a high half-life as slow loss. One may read the IC50 as the concentration that gives 50% inhibition.
